Experimental data published in ChEMBL document CHEMBL5678804 (Cancer Cell, 2011).
Activity calls are given as the source filed them. The calls are words filed in the database; no cut-off is given here.

How the values were obtained:
[1] = tested on: BaF3; test: cells; conditions: Mus musculus, BaF3, 72 h
[2] = molecular target: Tyrosine-protein kinase TXK (Homo sapiens, UniProt P42681); test: Inhibition of human wild type TXK using RBER-CHKtide as substrate preincubated for 2 hrs followed by ATP addition and measured every 2 mins for […] by spectrophotometric analysis
[3] = molecular target: Mitogen-activated protein kinase kinase kinase kinase 2 (Homo sapiens, UniProt Q12851); test: Inhibition of human wild type GCK using Chocktide-PKC(19t o 31) as substrate preincubated for 2 hrs followed by ATP addition and measured every 2 mins for […] by spectrophotometric analysis
[4] = molecular target: Muscle, skeletal receptor tyrosine-protein kinase (Homo sapiens, UniProt O15146); test: Inhibition of human wild type MUSK using Poly(Ala,Glu,Lys,Tyr)6:2:5:1 as substrate preincubated for 2 hrs followed by ATP addition and measured every 2 mins for […] by spectrophotometric analysis
[5] = molecular target: Homeodomain-interacting protein kinase 4 (Homo sapiens, UniProt Q8NE63); test: Inhibition of human wild type HIPK4 using RBER-IRStide as substrate preincubated for 2 hrs followed by ATP addition and measured every 2 mins for […] by spectrophotometric analysis
[6] = molecular target: Receptor tyrosine-protein kinase erbB-2 (Homo sapiens, UniProt P04626); test: Inhibition of human wild type HER2 using PolyEY as substrate preincubated for 2 hrs followed by ATP addition and measured every 2 mins for […] by spectrophotometric analysis
[7] = molecular target: Calcium/calmodulin-dependent protein kinase type 1 (Homo sapiens, UniProt Q14012); test: Inhibition of human CAMK1alpha preincubated for 2 hrs followed by ATP addition and measured every 2 mins for […] by spectrophotometric analysis
[8] = molecular target: Macrophage colony-stimulating factor 1 receptor (Homo sapiens, UniProt P07333); test: Inhibition of human wild type FMS using PolyEY as substrate preincubated for 2 hrs followed by ATP addition and measured every 2 mins for […] by spectrophotometric analysis
[9] = molecular target: MAP kinase-activated protein kinase 2 (Homo sapiens, UniProt P49137); test: Inhibition of human wild type MAPKAPK2 using RBER-CHKtide as substrate preincubated for 2 hrs followed by ATP addition and measured every 2 mins for […] by spectrophotometric analysis
[10] = molecular target: Mitogen-activated protein kinase kinase kinase 5 (Homo sapiens, UniProt Q99683); test: Inhibition of human wild type ASK1 using RBER-GSK3([…] to […]) as substrate preincubated for 2 hrs followed by ATP addition and measured every 2 mins for […] by spectrophotometric analysis
[11] = molecular target: Maternal embryonic leucine zipper kinase (Homo sapiens, UniProt Q14680); test: Inhibition of human wild type MELK using RBER-CHKtide as substrate preincubated for 2 hrs followed by ATP addition and measured every 2 mins for […] by spectrophotometric analysis
[12] = molecular target: Mitogen-activated protein kinase 14 (Homo sapiens, UniProt Q16539); test: Inhibition of human wild type p38 alpha using ATF2 as substrate preincubated for 2 hrs followed by ATP addition and measured every 2 mins for […] by spectrophotometric analysis
[13] = molecular target: Casein kinase I isoform alpha (Homo sapiens, UniProt P48729); test: Inhibition of human wild type CK1 alpha using Casein as substrate preincubated for 2 hrs followed by ATP addition and measured every 2 mins for […] by spectrophotometric analysis
[14] = molecular target: STE20-like serine/threonine-protein kinase (Homo sapiens, UniProt Q9H2G2); test: Inhibition of human wild type SLK using RB-S6P as substrate preincubated for 2 hrs followed by ATP addition and measured every 2 mins for […] by spectrophotometric analysis
[15] = molecular target: Mitogen-activated protein kinase 12 (Homo sapiens, UniProt P53778); test: Inhibition of human wild type p38 gamma using RBER-IRStide as substrate preincubated for 2 hrs followed by ATP addition and measured every 2 mins for […] by spectrophotometric analysis
[16] = molecular target: Tyrosine-protein kinase JAK2 (Homo sapiens, UniProt O60674); test: Inhibition of human wild type JAK2 using Poly(Ala,Glu,Lys,Tyr)6:2:5:1 as substrate preincubated for 2 hrs followed by ATP addition and measured every 2 mins for […] by spectrophotometric analysis
[17] = molecular target: Focal adhesion kinase 1 (Homo sapiens, UniProt Q05397); test: Inhibition of human wild type FAK using PolyEY as substrate preincubated for 2 hrs followed by ATP addition and measured every 2 mins for […] by spectrophotometric analysis
[18] = molecular target: Mitogen-activated protein kinase kinase kinase 10 (Homo sapiens, UniProt Q02779); test: Inhibition of human wild type MLK2 using Histon H2B as substrate preincubated for 2 hrs followed by ATP addition and measured every 2 mins for […] by spectrophotometric analysis
[19] = molecular target: CDK3/Cyclin E (Homo sapiens, UniProt Q00526); test: Inhibition of human wild type CDK3/cyclinE using RBER-CHKtide as substrate preincubated for 2 hrs followed by ATP addition and measured every 2 mins for […] by spectrophotometric analysis; format: protein-complex assay
[20] = molecular target: CDK1/Cyclin A (Homo sapiens, UniProt P06493); test: Inhibition of human wild type CDK1/cyclinA using RBER-CHKtide as substrate preincubated for 2 hrs followed by ATP addition and measured every 2 mins for […] by spectrophotometric analysis; format: protein-complex assay
[21] = molecular target: Lymphokine-activated killer T-cell-originated protein kinase (Homo sapiens, UniProt Q96KB5); test: Inhibition of human wild type PBK using Histon H1 as substrate preincubated for 2 hrs followed by ATP addition and measured every 2 mins for […] by spectrophotometric analysis
[22] = molecular target: Mitogen-activated protein kinase kinase kinase 8 (Homo sapiens, UniProt P41279); test: Inhibition of human wild type COT1 using RBER-CHKtide as substrate preincubated for 2 hrs followed by ATP addition and measured every 2 mins for […] by spectrophotometric analysis
[23] = molecular target: Myosin-IIIb (Homo sapiens, UniProt Q8WXR4); test: Inhibition of human MYO3B preincubated for 2 hrs followed by ATP addition and measured every 2 mins for […] by spectrophotometric analysis
[24] = molecular target: Rho-associated protein kinase 1 (Homo sapiens, UniProt Q13464); test: Inhibition of human wild type ROCK1 using 3xChocktide-PKC([…] to […]) as substrate preincubated for 2 hrs followed by ATP addition and measured every 2 mins for […] by spectrophotometric analysis
[25] = molecular target: Testis-specific serine/threonine-protein kinase 2 (Homo sapiens, UniProt Q96PF2); test: Inhibition of human wild type TSSK2 using RBER-CHKtide as substrate preincubated for 2 hrs followed by ATP addition and measured every 2 mins for […] by spectrophotometric analysis
[26] = molecular target: Tyrosine-protein kinase JAK3 (Homo sapiens, UniProt P52333); test: Inhibition of human wild type JAK3 using Poly(Ala,Glu,Lys,Tyr)6:2:5:1 as substrate preincubated for 2 hrs followed by ATP addition and measured every 2 mins for […] by spectrophotometric analysis
[27] = tested on: Tyrosine-protein kinase ABL1 (Homo sapiens), P00519 [T315I]; conditions: time 2.0 hrs
[28] = molecular target: Bcr/Abl fusion protein (Homo sapiens) (UniProt P00519+P11274); test: Inhibition of BCR-ABL1 phosphorylation in Ph+ B-ALL patient with […] mutation derived human Leukemia cell at 50 to 1000 nM by immunoblot analysis; format: cell-based; conditions: dose 50-1000 nM

Chain of Lymphokine-activated killer T-cell-originated protein kinase (Q96KB5 whole entry): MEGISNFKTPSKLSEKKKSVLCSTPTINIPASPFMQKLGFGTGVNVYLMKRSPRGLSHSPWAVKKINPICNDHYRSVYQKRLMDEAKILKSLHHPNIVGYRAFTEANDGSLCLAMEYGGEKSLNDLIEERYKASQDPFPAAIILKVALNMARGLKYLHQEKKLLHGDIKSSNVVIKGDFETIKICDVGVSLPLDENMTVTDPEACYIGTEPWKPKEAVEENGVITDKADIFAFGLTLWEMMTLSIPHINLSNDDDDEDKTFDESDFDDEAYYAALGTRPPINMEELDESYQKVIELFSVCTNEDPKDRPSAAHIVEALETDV
Chain of Myosin-IIIb (Q8WXR4 whole entry): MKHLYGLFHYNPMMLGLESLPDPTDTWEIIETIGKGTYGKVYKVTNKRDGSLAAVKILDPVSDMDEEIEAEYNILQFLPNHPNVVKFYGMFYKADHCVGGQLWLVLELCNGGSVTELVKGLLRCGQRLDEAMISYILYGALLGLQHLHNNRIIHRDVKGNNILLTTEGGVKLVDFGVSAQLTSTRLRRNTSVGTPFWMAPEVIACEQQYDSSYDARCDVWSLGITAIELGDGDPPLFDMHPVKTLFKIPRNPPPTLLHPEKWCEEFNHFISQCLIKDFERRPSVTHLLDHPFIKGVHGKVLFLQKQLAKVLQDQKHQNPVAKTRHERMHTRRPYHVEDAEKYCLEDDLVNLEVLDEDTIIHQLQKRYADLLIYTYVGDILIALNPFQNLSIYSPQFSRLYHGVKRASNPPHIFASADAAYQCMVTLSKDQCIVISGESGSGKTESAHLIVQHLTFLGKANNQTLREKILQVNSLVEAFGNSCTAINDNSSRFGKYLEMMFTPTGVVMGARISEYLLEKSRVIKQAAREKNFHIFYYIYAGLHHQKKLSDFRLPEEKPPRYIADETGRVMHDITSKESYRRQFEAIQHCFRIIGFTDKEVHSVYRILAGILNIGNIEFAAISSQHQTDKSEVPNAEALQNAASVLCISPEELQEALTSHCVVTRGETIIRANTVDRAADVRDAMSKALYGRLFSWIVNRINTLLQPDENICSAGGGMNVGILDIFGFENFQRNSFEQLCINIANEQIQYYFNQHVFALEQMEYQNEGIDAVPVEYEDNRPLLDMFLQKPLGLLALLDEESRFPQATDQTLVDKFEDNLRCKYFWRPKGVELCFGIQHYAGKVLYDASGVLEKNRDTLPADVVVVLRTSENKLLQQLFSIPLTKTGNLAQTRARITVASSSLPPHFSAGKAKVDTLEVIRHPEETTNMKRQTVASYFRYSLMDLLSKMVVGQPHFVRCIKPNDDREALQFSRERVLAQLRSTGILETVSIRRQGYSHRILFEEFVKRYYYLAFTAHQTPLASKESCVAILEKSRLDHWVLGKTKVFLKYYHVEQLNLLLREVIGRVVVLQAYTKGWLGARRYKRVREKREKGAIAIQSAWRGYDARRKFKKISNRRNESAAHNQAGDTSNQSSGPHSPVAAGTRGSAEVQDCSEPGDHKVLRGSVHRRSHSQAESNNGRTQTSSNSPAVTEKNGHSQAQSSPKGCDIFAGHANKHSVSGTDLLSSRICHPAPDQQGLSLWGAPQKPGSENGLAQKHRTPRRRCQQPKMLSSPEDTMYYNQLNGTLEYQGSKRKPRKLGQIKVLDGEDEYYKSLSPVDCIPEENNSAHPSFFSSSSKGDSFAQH
Chain of Mitogen-activated protein kinase kinase kinase 10 (Q02779 whole entry): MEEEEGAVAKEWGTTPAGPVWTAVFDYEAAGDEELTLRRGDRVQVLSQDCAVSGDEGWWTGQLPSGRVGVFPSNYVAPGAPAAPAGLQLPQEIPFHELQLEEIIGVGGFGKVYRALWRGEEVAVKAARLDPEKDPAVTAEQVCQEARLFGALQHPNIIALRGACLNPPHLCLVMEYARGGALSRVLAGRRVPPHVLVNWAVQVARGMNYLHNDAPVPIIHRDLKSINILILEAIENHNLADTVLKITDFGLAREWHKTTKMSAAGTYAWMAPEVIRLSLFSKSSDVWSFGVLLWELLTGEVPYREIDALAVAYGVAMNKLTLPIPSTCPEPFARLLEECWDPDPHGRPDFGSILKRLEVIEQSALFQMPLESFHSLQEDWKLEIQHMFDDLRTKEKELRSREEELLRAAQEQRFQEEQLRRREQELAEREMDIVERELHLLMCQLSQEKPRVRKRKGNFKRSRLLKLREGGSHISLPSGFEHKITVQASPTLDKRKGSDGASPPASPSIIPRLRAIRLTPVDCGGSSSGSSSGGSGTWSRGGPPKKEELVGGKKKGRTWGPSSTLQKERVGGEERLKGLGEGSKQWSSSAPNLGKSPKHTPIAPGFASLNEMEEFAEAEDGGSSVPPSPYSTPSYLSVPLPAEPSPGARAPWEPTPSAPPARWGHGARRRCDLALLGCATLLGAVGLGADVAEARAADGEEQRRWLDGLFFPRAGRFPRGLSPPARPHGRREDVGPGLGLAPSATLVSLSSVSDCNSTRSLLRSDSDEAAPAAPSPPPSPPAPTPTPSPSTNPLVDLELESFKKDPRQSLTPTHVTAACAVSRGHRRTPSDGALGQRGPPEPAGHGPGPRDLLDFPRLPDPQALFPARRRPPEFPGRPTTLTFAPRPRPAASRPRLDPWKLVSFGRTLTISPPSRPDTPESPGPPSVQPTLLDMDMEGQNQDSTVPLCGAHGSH
Chain of Calcium/calmodulin-dependent protein kinase type 1 (Q14012 whole entry): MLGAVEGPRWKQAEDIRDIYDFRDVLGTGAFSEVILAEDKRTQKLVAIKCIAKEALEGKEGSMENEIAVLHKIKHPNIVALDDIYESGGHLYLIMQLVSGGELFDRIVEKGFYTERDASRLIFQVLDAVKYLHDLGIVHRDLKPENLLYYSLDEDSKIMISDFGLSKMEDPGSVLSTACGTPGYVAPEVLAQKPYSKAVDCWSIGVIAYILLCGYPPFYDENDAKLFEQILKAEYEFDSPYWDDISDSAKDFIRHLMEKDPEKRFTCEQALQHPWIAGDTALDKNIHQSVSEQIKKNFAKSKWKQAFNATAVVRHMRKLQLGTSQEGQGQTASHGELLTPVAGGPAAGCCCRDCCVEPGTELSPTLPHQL
Chain of Mitogen-activated protein kinase 12 (P53778 whole entry): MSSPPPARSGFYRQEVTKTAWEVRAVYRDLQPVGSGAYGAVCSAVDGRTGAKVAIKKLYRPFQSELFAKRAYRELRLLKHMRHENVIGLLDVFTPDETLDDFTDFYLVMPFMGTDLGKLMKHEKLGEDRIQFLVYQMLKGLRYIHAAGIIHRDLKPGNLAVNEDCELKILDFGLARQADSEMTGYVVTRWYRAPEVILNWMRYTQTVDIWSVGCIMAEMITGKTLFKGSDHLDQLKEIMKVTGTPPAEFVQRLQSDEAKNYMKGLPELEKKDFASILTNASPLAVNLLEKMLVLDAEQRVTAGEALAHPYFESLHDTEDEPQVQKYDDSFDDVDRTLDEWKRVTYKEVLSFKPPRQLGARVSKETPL
Chain of Macrophage colony-stimulating factor 1 receptor (P07333 whole entry): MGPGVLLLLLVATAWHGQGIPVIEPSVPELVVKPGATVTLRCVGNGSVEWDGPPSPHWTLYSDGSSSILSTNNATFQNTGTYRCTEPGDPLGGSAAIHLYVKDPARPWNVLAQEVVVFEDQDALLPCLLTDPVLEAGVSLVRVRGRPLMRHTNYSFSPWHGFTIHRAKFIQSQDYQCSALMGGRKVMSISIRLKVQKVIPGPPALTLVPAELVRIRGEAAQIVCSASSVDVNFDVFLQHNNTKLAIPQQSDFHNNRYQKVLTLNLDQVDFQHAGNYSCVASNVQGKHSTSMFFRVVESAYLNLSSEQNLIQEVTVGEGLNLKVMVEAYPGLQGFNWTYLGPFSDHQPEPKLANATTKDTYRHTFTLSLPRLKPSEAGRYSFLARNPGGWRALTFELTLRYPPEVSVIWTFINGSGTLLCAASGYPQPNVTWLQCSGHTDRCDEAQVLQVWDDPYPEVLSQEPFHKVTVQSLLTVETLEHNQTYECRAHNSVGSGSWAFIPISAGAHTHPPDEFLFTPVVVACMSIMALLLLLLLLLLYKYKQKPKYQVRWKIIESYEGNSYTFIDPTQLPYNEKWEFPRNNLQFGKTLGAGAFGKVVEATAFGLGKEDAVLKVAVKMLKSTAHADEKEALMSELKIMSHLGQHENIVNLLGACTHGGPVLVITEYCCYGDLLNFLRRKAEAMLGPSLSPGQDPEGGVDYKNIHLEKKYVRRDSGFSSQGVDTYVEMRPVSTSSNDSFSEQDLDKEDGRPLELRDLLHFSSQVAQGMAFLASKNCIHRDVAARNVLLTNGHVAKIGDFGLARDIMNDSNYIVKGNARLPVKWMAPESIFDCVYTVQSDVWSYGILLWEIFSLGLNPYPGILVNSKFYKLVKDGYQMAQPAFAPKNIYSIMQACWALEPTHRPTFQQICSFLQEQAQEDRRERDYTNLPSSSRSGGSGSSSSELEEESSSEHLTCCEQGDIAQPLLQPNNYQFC
Chain of Homeodomain-interacting protein kinase 4 (Q8NE63 whole entry): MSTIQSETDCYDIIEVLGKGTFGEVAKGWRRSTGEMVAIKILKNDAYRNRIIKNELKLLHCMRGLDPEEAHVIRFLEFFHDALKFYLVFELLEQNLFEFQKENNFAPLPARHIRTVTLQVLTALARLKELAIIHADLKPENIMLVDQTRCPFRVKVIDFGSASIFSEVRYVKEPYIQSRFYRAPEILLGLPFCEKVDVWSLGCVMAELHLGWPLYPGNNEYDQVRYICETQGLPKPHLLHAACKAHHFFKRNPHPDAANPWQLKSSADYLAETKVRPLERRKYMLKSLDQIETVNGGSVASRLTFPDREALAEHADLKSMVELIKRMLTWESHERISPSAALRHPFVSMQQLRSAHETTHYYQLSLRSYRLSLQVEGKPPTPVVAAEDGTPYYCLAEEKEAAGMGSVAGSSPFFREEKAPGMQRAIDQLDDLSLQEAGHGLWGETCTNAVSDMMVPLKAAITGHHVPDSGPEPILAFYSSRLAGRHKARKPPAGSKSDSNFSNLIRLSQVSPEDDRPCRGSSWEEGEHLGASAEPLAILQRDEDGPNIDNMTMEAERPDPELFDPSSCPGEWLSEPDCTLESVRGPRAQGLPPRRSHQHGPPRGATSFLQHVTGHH

Compound: CNC(=O)c1cc(Oc2ccc(NC(=O)Nc3cc(C(C)(C)C)nn3-c3ccc4ncccc4c3)c(F)c2)ccn1 [REBASTINIB]
- IC50 [1]: 6 nM
- IC50 [2]: > 1000 nM
- IC50 [3]: 230 nM
- IC50 [4]: > 1000 nM
- IC50 [5]: 450 nM
- IC50 [6]: > 1000 nM
- IC50 [7]: > 1000 nM
- IC50 [8]: 620 nM
- IC50 [9]: > 1000 nM
- IC50 [10]: > 1000 nM
- IC50 [11]: > 1000 nM
- IC50 [12]: 110 nM
- IC50 [13]: > 1000 nM
- IC50 [14]: 670 nM
- IC50 [15]: > 1000 nM
- IC50 [16]: > 1000 nM
- IC50 [17]: 250 nM
- IC50 [18]: > 1000 nM
- IC50 [19]: > 1000 nM
- IC50 [20]: > 1000 nM
- IC50 [21]: > 1000 nM
- IC50 [22]: > 1000 nM
- IC50 [23]: > 1000 nM
- IC50 [24]: > 1000 nM
- IC50 [25]: > 1000 nM
- IC50 [26]: > 1000 nM
- Kdiss [27]: 1.67e-05 s⁻¹
- inhibition [28]: Active
